Assay results: the NIST ThermoML archive (doi:10.1021/je100100n)

Experiment: xn = mol fraction of the nth substance listed
Conditions: 101 kPa, Liquid

CCOC(=O)CC(=O)OCC [diethyl 1,3-propanedioate] + CO
mass density [kg/m3]
Conditions | 288.15 K | 298.15 K | 313.15 K | 328.15 K
x1 = 0.05 | 841.286 | 831.536 | 816.754 | 801.691
x1 = 0.1 | 876.23 | 866.252 | 851.13 | 835.697
x1 = 0.1501 | 904.185 | 894.037 | 878.631 | 862.956
x1 = 0.2001 | 926.962 | 916.671 | 901.091 | 885.223
x1 = 0.2501 | 945.901 | 935.504 | 919.763 | 903.75
x1 = 0.3001 | 961.96 | 951.502 | 935.636 | 919.517
x1 = 0.35 | 975.573 | 965.04 | 949.084 | 932.879
x1 = 0.4001 | 987.417 | 976.822 | 960.784 | 944.523
x1 = 0.4503 | 997.752 | 987.12 | 971.04 | 954.725
x1 = 0.5004 | 1006.9 | 996.235 | 980.1 | 963.763
x1 = 0.5497 | 1014.88 | 1004.18 | 988.016 | 971.649
x1 = 0.6 | 1022.04 | 1011.32 | 995.132 | 978.761
x1 = 0.6495 | 1028.48 | 1017.74 | 1001.52 | 985.159
x1 = 0.6997 | 1034.33 | 1023.59 | 1007.37 | 991.006
x1 = 0.7978 | 1044.36 | 1033.61 | 1017.38 | 1001.07
x1 = 0.9009 | 1053.15 | 1042.39 | 1026.22 | 1009.98
x1 = 1 | 1060.33 | 1049.6 | 1033.5 | 1017.34

CCOC(=O)CC(=O)OCC [diethyl 1,3-propanedioate] + CCCO
mass density [kg/m3]
Conditions | 288.15 K | 298.15 K | 313.15 K | 328.15 K
x1 = 0.1001 | 854.156 | 845.431 | 832.128 | 818.439
x1 = 0.2 | 891.858 | 882.638 | 868.577 | 854.173
x1 = 0.2999 | 923.874 | 914.254 | 899.629 | 884.69
x1 = 0.3501 | 938.229 | 928.438 | 913.567 | 898.431
x1 = 0.4001 | 951.433 | 941.51 | 926.45 | 911.123
x1 = 0.4499 | 963.765 | 953.71 | 938.475 | 922.986
x1 = 0.4999 | 975.313 | 965.148 | 949.737 | 934.134
x1 = 0.5446 | 985.016 | 974.758 | 959.257 | 943.524
x1 = 0.5997 | 996.235 | 985.888 | 970.245 | 954.437
x1 = 0.7003 | 1014.96 | 1004.46 | 988.638 | 972.67
x1 = 0.7998 | 1031.53 | 1020.94 | 1004.99 | 988.923
x1 = 0.8997 | 1046.55 | 1035.87 | 1019.84 | 1003.72
x1 = 1 | 1060.33 | 1049.6 | 1033.5 | 1017.34

CO [methanol] + CCOC(=O)CC(=O)OCC
x2 = 0
Conditions | mass density [kg/m3]
288.15 K | 796.406
298.15 K | 786.987
313.15 K | 772.74
328.15 K | 758.201

CCOC(=O)CC(=O)OCC [diethyl 1,3-propanedioate] + CC(C)CO
mass density [kg/m3]
Conditions | 288.15 K | 298.15 K | 313.15 K | 328.15 K
x1 = 0.1 | 843.381 | 835.034 | 822.221 | 808.976
x1 = 0.2 | 877.394 | 868.517 | 854.953 | 841.015
x1 = 0.3 | 908.051 | 898.746 | 884.583 | 870.102
x1 = 0.35 | 922.305 | 912.816 | 898.402 | 885.344
x1 = 0.3999 | 935.772 | 926.126 | 911.47 | 896.55
x1 = 0.4495 | 948.602 | 938.806 | 923.966 | 908.867
x1 = 0.5001 | 961.044 | 951.116 | 936.085 | 920.835
x1 = 0.6001 | 984.156 | 973.999 | 958.66 | 943.14
x1 = 0.6999 | 1005.33 | 995.001 | 979.414 | 963.679
x1 = 0.8003 | 1025.06 | 1014.57 | 998.792 | 982.885
x1 = 0.9 | 1043.28 | 1032.67 | 1016.71 | 1000.67
x1 = 1 | 1060.33 | 1049.6 | 1033.5 | 1017.34

CCCO [propan-1-ol] + CCOC(=O)CC(=O)OCC
x2 = 0
Conditions | mass density [kg/m3]
288.15 K | 809.009
298.15 K | 800.973
313.15 K | 788.687
328.15 K | 775.974

CC(C)O [propan-2-ol] + CCOC(=O)CC(=O)OCC
x2 = 0
Conditions | mass density [kg/m3]
288.15 K | 789.342
298.15 K | 780.99
313.15 K | 767.922
328.15 K | 754.001

CC(C)CO [2-methyl-1-propanol] + CCOC(=O)CC(=O)OCC
x2 = 0
Conditions | mass density [kg/m3]
288.15 K | 805.6
298.15 K | 797.916
313.15 K | 786.069
328.15 K | 773.692

CCCCCO [pentan-1-ol] + CCOC(=O)CC(=O)OCC
x2 = 0
Conditions | mass density [kg/m3]
288.15 K | 818.801
298.15 K | 811.465
313.15 K | 800.264
328.15 K | 788.737
